# Experiments:
# [1] = tested on: Human alphaherpesvirus 1; assay: Antiviral activity against HSV-1 KOS infected in MDCK cells assessed as inhibition of viral replication measured after 24 hrs by plaque reduction assay; assay type: functional, organism-based; conditions: Human alphaherpesvirus 1, KOS
# [2] = tested on: Human alphaherpesvirus 2; assay: Antiviral activity against HSV-2 UW 268 infected in MDCK cells assessed as inhibition of viral replication measured after 24 hrs by plaque reduction assay; assay type: functional, organism-based; conditions: Human alphaherpesvirus 2, UW 268, MDCK
# [3] = tested on: Human alphaherpesvirus 2; assay: Antiviral activity against HSV-2 Baylor 186 infected in African green monkey Vero cells incubated for 2 days by plaque reduction assay; assay type: functional, organism-based; conditions: Human alphaherpesvirus 2, Baylor 186, Vero, 48 h
# [4] = tested on: Human alphaherpesvirus 1; assay: Antiviral activity against HSV-1 7401H infected in African green monkey Vero cells incubated for 2 days by plaque reduction assay; assay type: functional, organism-based; conditions: Human alphaherpesvirus 1, 7401H
# [5] = tested on: Human alphaherpesvirus 1; assay: Antiviral activity against HSV-1 KOS infected in African green monkey Vero cells incubated for 2 days by plaque reduction assay; assay type: functional, organism-based; conditions: Human alphaherpesvirus 1, KOS, 48 h
# [6] = tested on: Human immunodeficiency virus 1; assay: Antiviral activity against HIV-1 GB8 infected in human JM1 cells; assay type: functional, organism-based; conditions: Human immunodeficiency virus 1, GB8, JM1
# [7] = Selectivity index, ratio of CC50 for cytotoxicity against MDCK cells to IC50 for influenza A virus A/Guangdong/243/72 ([…]) infected in MDCK cells; assay type: toxicity, cell-based; conditions: dog, read-out: Ratio CC50/IC50
# [8] = tested on: Influenza A virus; assay: Antiviral activity against influenza A virus A/Guangdong/243/72 ([…]) infected in MDCK cells assessed as inhibition of virus-induced cytopathic effect; assay type: functional, organism-based
# [9] = Inhibition of influenza B virus B/Jiangsu/10/2003 neuraminidase
# [10] = tested on: Influenza A virus; assay: Antiviral activity against influenza A virus A/PR/8/34 (H1N1) infected in MDCK cells preincubated 2 hrs followed by viral infection and measured after 24 hrs by MTT assay; assay type: functional, organism-based
# [11] = tested on: Human immunodeficiency virus 1; assay: Antiviral activity against HIV-1 RF infected in human JM1 cells; assay type: functional, organism-based; conditions: Human immunodeficiency virus 1, RF
# [12] = tested on: Influenza A virus; assay: Antiviral activity against influenza A virus A/NWS/33 (H1N1) infected in MDCK cells; assay type: functional, organism-based
# [13] = tested on: Coxsackievirus B3; assay: Antiviral activity against CVB3 infected in African green monkey Vero cells assessed as reduction in cytopathic effect by SRB assay; assay type: functional, organism-based; conditions: Enterovirus B
# [14] = tested on: Enterovirus A71; assay: Antiviral activity against human EV71 infected in African green monkey Vero cells assessed as reduction in cytopathic effect by SRB assay; assay type: functional, organism-based; conditions: Enterovirus A
# [15] = tested on: Human immunodeficiency virus 1; assay: Antiviral activity against HIV-1 infected in HEK293T cells; assay type: functional, organism-based; conditions: Human immunodeficiency virus 1, HEK-293T
# [16] = Cytotoxicity against HEK293T cells; assay type: toxicity, cell-based, HEK-293T; conditions: human, read-out: TC50 (the source's name)
# [17] = Therapeutic index, ratio of CC50 for cytotoxicity against human C8166 cells to EC50 for antiviral activity against HIV-1 infected in C8166 cells; assay type: toxicity, cell-based; conditions: read-out: Ratio CC50/EC50
# [18] = Cytotoxicity against human C8166 cells assessed as inhibition of cell growth by MTT assay; assay type: toxicity, cell-based
# [19] = tested on: Influenza A virus; assay: Antiviral activity against influenza A virus A/PR/8/34 (H1N1) infected in human A549 cells assessed as inhibition of RANTES production incubated for 48 hrs by ELISA; assay type: functional, organism-based; conditions: A549, 48 h
# [20] = tested on: Vero C1008; assay: Cytotoxicity against African green monkey Vero E6 cells infected with Middle East respiratory syndrome coronavirus assessed as reduction in cell viability at 250 uM by LDH assay relative to control; assay type: toxicity, cell-based; conditions: chlorocebus sabaeus, vero c1008, 250 µM
# [21] = tested on: rhinovirus A1B; assay: Antiviral activity against HRV1B infected in human HeLa cells assessed as reduction in cytopathic effect by SRB assay; assay type: functional, organism-based; conditions: Rhinovirus A
# [22] = Cytotoxicity against human A549 cells assessed as reduction in cell viability by Alamar blue assay; assay type: toxicity, cell-based
# [23] = tested on: Human immunodeficiency virus 1; assay: Antiviral activity against HIV-1 infected in human C8166 cells assessed as inhibition of viral replication; assay type: functional, organism-based; conditions: Human immunodeficiency virus 1, C8166
smiles,measurement,setting,value
O=C1C=C[C@]23[C@H](C1)Oc1cccc4c1[C@H]2[C@H](c1cc(O)cc2c1[C@@H]4[C@H](c1ccc(O)cc1)O2)[C@@H](c1cc(O)cc2c1[C@@H](c1cc(O)cc(O)c1)[C@H](c1ccc(O)cc1)O2)[C@@H]3c1ccc(O)cc1,IC50,[1],2.8 µM
same,IC50,[2],6.8 µM
Oc1cc(O)cc(/C=C/c2ccc(O)cc2O)c1 [OXYRESVERATROL],IC50,[3],18.7 µg/mL
same,IC50,[4],19.8 µg/mL
same,IC50,[5],24 µg/mL
O=S(=O)(O)c1cc(N=C=S)ccc1CCc1ccc(N=C=S)cc1S(=O)(=O)O,IC50,[6],40 µM
Oc1ccc(/C=C/c2cc(O)c3c(c2)O[C@H](c2ccc(O)cc2O)[C@H]3c2cc(O)cc(O)c2)cc1,selectivity ratio,[7],57.4
same,IC50,[8],0.67 µg/mL
same,IC50,[9],26.3 µg/mL
same,IC50,[10],0.67 µg/mL
O=S(=O)(O)c1cc(N=C=S)ccc1/C=C/c1ccc(N=C=S)cc1S(=O)(=O)O,IC50,[11],20 µM
Oc1ccc([C@@H]2c3c(O)cc(O)cc3[C@@H]3c4c(cc(O)cc4[C@H]2[C@@H]2c4cc(O)cc5c4[C@@H](c4cc(O)cc(O)c4[C@H]2c2ccc(O)cc2)[C@H](c2ccc(O)cc2)O5)O[C@H]3c2ccc(O)cc2)cc1,IC50,[12],6.4 µM
same,IC50,[1],2.8 µM
same,IC50,[2],6.4 µM
Oc1ccc(/C=C\c2cc(O)cc(O)c2)cc1 [CIS-RESVERATROL],IC50,[13],12.2 µM
same,IC50,[14],37.6 µM
Oc1ccc(/C=C/c2cc(O)cc(O)c2)cc1 [RESVERATROL],EC50,[15],> 75 µM
same,CC50,[16],> 300 µM
same,IC50,[8],> 22.2 µg/mL
same,selectivity ratio,[17],8.14
same,CC50,[18],35.6 µg/mL
same,EC50,[19],28.4 µM
same,Activity,[20],25%
same,IC50,[21],29.7 µM
same,CC50,[22],52.6 µM
same,EC50,[23],4.37 µg/mL

# Reference: ChEMBL document CHEMBL5233255, “Natural and nature-inspired stilbenoids as antiviral agents” (Eur J Med Chem, 2020)
